Assay results published in US6727264B1 (Synaptic Pharmaceutical Corporation, priority 2001, dated 2004).

target: rat MCH-1 (Rattus norvegicus, UniProt P97639); experiment: Radioligand binding assay at cloned rat MCH1 receptor ([3H] Compound A); set-up: host or cells: Peak rapid 293 (Peakr293) cells, transient calcium phosphate transfection, membranes; conditions: cloned rat MCH1 receptor, membranes from Peakr293 cells, 0.08 nM [3H] Compound A; read-out: Ki (nM) rMCH1
Sequence (P97639 whole entry): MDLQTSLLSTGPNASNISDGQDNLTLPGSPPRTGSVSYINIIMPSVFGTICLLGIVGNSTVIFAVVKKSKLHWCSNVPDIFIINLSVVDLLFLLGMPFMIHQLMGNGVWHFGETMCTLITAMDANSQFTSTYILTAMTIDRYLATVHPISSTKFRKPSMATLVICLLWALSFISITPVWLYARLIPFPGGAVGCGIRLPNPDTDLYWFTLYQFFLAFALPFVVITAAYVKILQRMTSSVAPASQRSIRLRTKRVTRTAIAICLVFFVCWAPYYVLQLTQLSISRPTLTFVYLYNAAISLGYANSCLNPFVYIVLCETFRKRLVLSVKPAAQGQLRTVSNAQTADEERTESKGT

Row | Structure (SMILES) | Ki [nM]
1 | Cc1onc(-c2ccccc2Cl)c1C(=O)NCCCN1CCC(c2cccc(NC(=O)C(C)C)c2)CC1 [Example 331] | 51.3
2 | Cc1c(CN2CCC(c3cccc(NC(=O)C(C)C)c3)CC2)c(=O)n(-c2ccccc2)n1C [Example 228] | 841
3 | Cc1cccc(OC(CCN2CCC(c3cccc(NC(=O)C(C)C)c3)CC2)c2ccc(Br)cc2)c1 (stereo not shown) [Example 144] | 13.4
4 | CC(C)C(=O)Nc1cccc(C2CCN(Cc3ccc4c(c3)Cc3ccccc3-4)CC2)c1 [Example 257] | 37.2
5 | CC(C)C(=O)Nc1cccc(C2CCN(C[C@H](C)COc3cccc(Br)c3)CC2)c1 [Example 364] | 144
6 | CC(C)C(=O)Nc1cccc(C2CCN(CC[C@H](NC(=O)c3ccc(F)cc3F)c3ccccc3)CC2)c1 [Example 312] | 61.5
7 | Cc1onc(-c2ccccc2Cl)c1C(=O)OC(CCCN1CCC(c2cccc(NC(=O)C(C)C)c2)CC1)c1ccccc1 (stereo not shown) [Example 300, 4-{4-[3-(ISOBUTYRYLAMINO)PHENYL]-1-PIPERIDINYL}-1-PHENYLBUTYL 3-(2-CHLOROPHENYL)-5-METHYL-4-ISOXAZOLECARBOXYLATE] | 7.6
8 | CC(C)C(=O)Nc1cccc(C2CCN(C[C@H](Oc3cccc(Cl)c3)c3ccccc3)CC2)c1 [Example 339] | 890
9 | CCn1c2ccccc2c2cc(CN3CCC(c4cc(NC(=O)C(C)C)ccc4C)CC3)ccc21 [Example 270] | 3.4
10 | CC(C)C(=O)Nc1cccc(C2CCN(Cc3ccc4c(c3)OCCO4)CC2)c1 [Example 223] | 318
11 | COc1ccc(-n2ccc3cc(CN4CCC(c5cccc(NC(=O)C(C)C)c5)CC4)ccc32)cc1 [Example 100] | 27.5
12 | Cc1cc(CN2CCC(c3cccc(NC(=O)C(C)C)c3)CC2)c(C)n1-c1cccc(C(F)(F)F)c1 [Example 109] | 20.9
13 | CC(=O)c1cccc(OC(CCN2CCC(c3cccc(NC(=O)C(C)C)c3)CC2)c2ccc(F)cc2)c1 (stereo not shown) [Example 176] | 11.8
14 | CC(C)C(=O)Nc1cccc(C2CCN(CCCCCCn3ccc4ccccc43)CC2)c1 [Example 96] | 15.9
15 | CC(C)C(=O)Nc1cccc(C2CCN(CC[C@H](NC(=O)c3ccc([N+](=O)[O-])o3)c3ccccc3)CC2)c1 [Example 324] | 76.8
16 | CC(C)C(=O)Nc1cccc(C2CCN(CCC(Oc3ccc(F)c(F)c3)c3ccc(Cl)cc3)CC2)c1 (stereo not shown) [Example 125] | 5.4
17 | COc1ccc2[nH]c(-c3ccccc3)c(CCCCN3CCC(c4cccc(NC(=O)C(C)C)c4)CC3)c2c1 [Example 92] | 8
18 | CC(C)C(=O)Nc1cccc(C2CCN(CCC(Oc3ccc(Cl)cc3)c3ccc4c(c3)CCC4)CC2)c1 (stereo not shown) [Example 168] | 7
19 | CC(C)C(=O)Nc1cccc(C2CCN(CCCC(c3ccc(F)cc3)c3ccc(F)cc3)CC2)n1 [Example 265] | 13.5
20 | CC(C)C(=O)Nc1cccc(C2CCN(CCC(Oc3cccc(Br)c3)c3ccc(F)cc3)CC2)c1 (stereo not shown) [Example 138] | 9.3
21 | CC(C)C(=O)Nc1cccc(C2CCN(C[C@H](C)COc3ccc(Br)cc3)CC2)c1 [Example 356] | 54.5
22 | CC(C)C(=O)Nc1cccc(C2CCN(CCC(Oc3ccc(Oc4ccccc4)cc3)c3ccc(Br)cc3)CC2)c1 (stereo not shown) [Example 149] | 149
23 | CC(C)C(=O)Nc1cccc(C2CCN(CCCCOC(=O)Cc3ccc(F)cc3)CC2)c1 [Example 299] | 37.5
24 | CC(C)C(=O)Nc1cccc(C2CCN(CCC(Oc3ccc(C(F)(F)F)cc3)c3ccc(F)cc3)CC2)c1 (stereo not shown) [Example 137] | 25.2
25 | CCSc1ncccc1C(=O)N[C@@H](CCN1CCC(c2cccc(NC(=O)C(C)C)c2)CC1)c1ccccc1 [Example 307] | 97.4

same assay, conditions: cloned rat MCH1 receptor; 0.08 nM [3H] Compound A; Peakr293 cell membranes; read-out: Ki (nM) rMCH1

Row | Structure (SMILES) | Ki [nM]
26 | CC(C)C(=O)Nc1cccc(C2CCN(CCCCCC(Oc3ccc(F)cc3)c3ccc(Cl)cc3)CC2)c1 (stereo not shown) [Example 902] | 11
27 | CC(C)C(=O)Nc1cccc(C2CCN(CCNC(=O)c3ccc4ccccc4c3)CC2)c1 [Example 650] | 21.1
28 | COc1ccc2c(CN3CCC(c4cccc(NC(=O)C(C)C)c4)CC3)c[nH]c2c1 [Example 497] | 97.7
29 | CC(C)C(=O)Nc1cccc(C2CCN(CCNC(=O)Nc3ccc(-c4ccccc4)cc3)CC2)c1 [Example 647] | 81.6
30 | Cc1cccc2c(CCCN3CCC(c4cccc(NC(=O)C(C)C)c4)CC3)c(-c3ccccc3I)[nH]c12 [Example 793] | 16.3
31 | COc1ccc2[nH]c(-c3ccc(C(F)(F)F)cc3)c(CCCN3CCC(c4cccc(NC(=O)C(C)C)c4)CC3)c2c1 [Example 689] | 11.3
32 | CC(C)C(=O)Nc1cccc(C2CCN(CCCc3c(-c4ccc(F)cc4)n(-c4ccccc4)c4ccccc34)CC2)c1 [Example 696] | 48.3
33 | Cc1ccc2[nH]c(-c3ccc(F)cc3)c(CCCN3CCC(c4cccc(NC(=O)C(C)C)c4)CC3)c2c1 [Example 718] | 3.4
34 | CC(C)C(=O)Nc1cccc(C2CCN(CCCc3c(-c4ccccc4F)n(-c4ccccc4)c4ccccc34)CC2)c1 [Example 711] | 90.5
35 | CC(=O)c1ccc(-c2cccc3c(CN4CCC(c5cccc(NC(=O)C(C)C)c5)CC4)c[nH]c23)cc1 [Example 522] | 247
36 | CC(C)C(=O)Nc1cccc(C2CCN(CCCCCCNC(=O)Nc3cccc4ccccc34)CC2)c1 [Example 634] | 116
37 | CC(C)C(=O)Nc1cccc(C2CCN(CCCc3c(-c4cccc(Br)c4)n(-c4ccccc4)c4ccccc34)CC2)c1 [Example 757] | 6.9
38 | CC(C)C(=O)Nc1cccc(C2CCN(Cc3c[nH]c4ccc(C#N)cc34)CC2)c1 [Example 436] | 434
39 | CC(C)C(=O)Nc1cccc(C2CCN(Cc3ccc4c(ccn4-c4cccc(Cl)c4Cl)c3)CC2)c1 [Example 854] | 13.8
40 | CC(=O)Nc1cccc(C2CCN(CCCNC(=O)C3=C(C)NC(=O)CC3c3ccc(F)c(F)c3)CC2)c1 (stereo not shown) [Example 623] | 23.1
41 | CC(C)C(=O)Nc1cccc(C2CCN(CCCc3c(-c4ccccc4F)[nH]c4c3ccc3ccccc34)CC2)c1 [Example 697] | 3
42 | Cc1ccccc1-n1cc(CN2CCC(c3cccc(NC(=O)C(C)C)c3)CC2)c2ccccc21 [Example 452] | 12.7
43 | CC(C)C(=O)Nc1cccc(C2CCN(CCCc3c(-c4ccccc4Br)[nH]c4ccccc34)CC2)c1 [Example 775] | 4.9
44 | Cc1ccc2[nH]c(-c3ccc(C(F)(F)F)cc3)c(CCCN3CCC(c4cccc(NC(=O)C(C)C)c4)CC3)c2c1 [Example 688] | 41
45 | CC(C)C(=O)Nc1cccc(C2CCN(Cc3ccc4c(ccn4-c4ccccc4F)c3)CC2)c1 [Example 852] | 14.5
46 | CC(C)C(=O)Nc1cccc(C2CCN(CCCc3c(-c4cccc(Br)c4)n(C)c4ccccc34)CC2)c1 [Example 758] | 110
47 | Cc1ccc2[nH]cc(CCCN3CCC(c4cccc(NC(=O)C(C)C)c4)CC3)c2c1 [Example 415] | 8.1
48 | CC(C)C(=O)Nc1cccc(C2CCN(CCCCCC(Oc3ccc(F)cc3)c3ccccc3F)CC2)c1 (stereo not shown) [Example 890] | 11.1

Row | Structure (SMILES) | Ki [nM]
49 | CC(C)C(=O)Nc1cccc(C2CCN(CCCc3c(-c4ccc(C(F)(F)F)cc4)n(-c4ccccc4)c4ccccc34)CC2)c1 [Example 685] | 82.4
50 | CC(C)C(=O)Nc1cccc(C2CCN(CCC(c3ccccc3)c3ccccc3)CC2)c1 [Example 802] | 36.7
51 | CC(C)C(=O)Nc1cccc(C2CCN(CCCCCCNC(=O)c3cc(C(C)(C)C)nn3Cc3ccccc3)CC2)c1 [Example 629] | 42.9
52 | CC(C)C(=O)Nc1cccc(C2CCN(CC[C@H](NC(=S)NC(C)(C)C)c3ccccc3)CC2)c1 [Example 606] | 40.4
53 | COc1ccc(OC(CCCCCN2CCC(c3cccc(NC(=O)C(C)C)c3)CC2)c2ccccc2F)cc1 (stereo not shown) [Example 892] | 17.3
54 | O=C(Nc1cccc(C2CCN(CCCCCSc3ccccc3)CC2)c1)C1CC1 [Example 587] | 46.9
55 | Cc1ccc2[nH]c(-c3ccccc3)c(CCCCN3CCC(c4cccc(NC(=O)C(C)C)c4)CC3)c2c1 [Example 421] | 1.8
56 | Cc1ccc(S(=O)(=O)N[C@@H](CCN2CCC(c3cccc(NC(=O)C(C)C)c3)CC2)c2ccccc2)cc1 [Example 595] | 36.3
57 | COc1ccc2[nH]c(-c3ccc(Cl)cc3)c(CCCN3CCC(c4cccc(NC(=O)C(C)C)c4)CC3)c2c1 [Example 713] | 7.7
58 | CC(C)C(=O)Nc1cccc(C2CCN(CCCCC(=O)N3C(=O)OC[C@H]3c3ccc(F)c(F)c3)CC2)c1 [Example 572] | 181
59 | Cc1ccc2[nH]c(-c3ccc([N+](=O)[O-])cc3)c(CCCN3CCC(c4cccc(NC(=O)C(C)C)c4)CC3)c2c1 [Example 776] | 18.2
60 | COc1ccc2[nH]c(-c3ccc(F)cc3)c(CCCN3CCC(c4cccc(NC(=O)C(C)C)c4)CC3)c2c1 [Example 692] | 2
61 | Cc1ccc(-n2cc(CN3CCC(c4ccc(NC(=O)C(C)C)cc4)CC3)c3ccccc32)cc1 [Example 422] | 173
62 | COc1ccccc1-n1cc(CN2CCC(c3cccc(NC(=O)C(C)C)c3)CC2)c2ccccc21 [Example 447] | 9.8
63 | Cc1ccc2[nH]c(-c3cccc(Cl)c3)c(CCCN3CCC(c4cccc(NC(=O)C(C)C)c4)CC3)c2c1 [Example 727] | 3.4
64 | CCC(=O)Nc1cccc(C2CCN(CCCC(=O)c3ccc(OC)cc3)CC2)c1 [Example 531] | 105
65 | CC(C)C(=O)Nc1cccc(C2CCN(CCCCNC(=O)Nc3ccc(-c4ccccc4)cc3)CC2)c1 [Example 660] | 129
66 | CC(C)C(=O)Nc1cccc(C2CCN(CCCCC(=O)c3cccc(F)c3)CC2)c1 [Example 669] | 42.2
67 | CC(=O)c1cccc(OC(CCCCN2CCC(c3cccc(NC(=O)C(C)C)c3)CC2)c2ccc(F)cc2)c1 (stereo not shown) [Example 922] | 25
68 | CC(C)C(=O)Nc1cccc(C2CCN(CCCCC(O)c3cccc(Cl)c3)CC2)c1 (stereo not shown) [Example 816] | 89.6
69 | Cc1cccc2c(CCCCN3CCC(c4cccc(NC(=O)C(C)C)c4)CC3)c(-c3ccccc3)[nH]c12 [Example 403] | 11.7
70 | COC(=O)c1ccc2c(CN3CCC(c4cccc(NC(=O)C(C)C)c4)CC3)c[nH]c2c1 [Example 498, METHYL 3-({4-[3-(ISOBUTYRYLAMINO)PHENYL]-1-PIPERIDINYL}METHYL)-1H-INDOLE-6-CARBOXYLATE] | 52.2
